Results published in patent US20110053773A1, “METHODS OF IMPROVING NUTRITIONAL VALUE OF PLANTS” (UNIVERSITY OF TENNESSEE RESEARCH FOUNDATION, priority 2009, published 2011).

Legend:
kale 'Red Russian' = assay: Content analysis of kale: protein, amino acids, fiber, fatty acids, minerals (Example 4, Tables 12-14); assay type: in vivo; conditions: 28 DA-A
Method in brief: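 Postemergence greenhouse applications of chlorpyrifos, chlorothalonil, mepiquat-chloride, paclobutrazol, napthalic anhydride or isoxadifen-ethyl. Injury rated visually for phytotoxicity, chlorosis and stunting on a 0–100% scale (0 = no response, 100 = plant death). Plants harvested ~4 weeks after treatment, pooled over replicates for nutrient content analysis.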

basil 'Genovese' = assay: Content analysis of basil: protein, minerals (Example 4, Tables 10-11); assay type: in vivo; conditions: 28 DA-A
Method in brief: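 Greenhouse postemergence applications of chlorpyrifos, chlorothalonil, mepiquat-chloride, paclobutrazol, napthalic anhydride or isoxadifen-ethyl. Visual injury (phytotoxicity, chlorosis, stunting) scored 0–100%, 0 = no response, 100 = plant death. Harvest about 4 weeks after treatment; replicates pooled for protein, mineral, amino acid, fiber and fatty acid analysis.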

[1] = rates g ai/ha: chlropyrifos 1120, chlorothalonil 2630, paclobutrazol 3.23, mepiquat-chloride 12.3, + NIS 0.25 % v/v
[2] = rates g ai/ha: chlropyrifos 3370, chlorothalonil 7900, paclobutrazol 9.7, mepiquat-chloride 37, + NIS 0.25 % v/v
[3] = second-listed rate g ai/ha: chlropyrifos ###, chlorothalonil ###, paclobutrazol 9.7, mepiquat-chloride 37, + NIS 0.3 % v/v
[4] = rates g ai/ha: chlroprifos 3370, chlorothalonil 7900, paclobutrazol 9.7, mepiquat-chloride 37, Isoxadifen 16, Napthalic anhydride 527, + NIS 0.25 % v/v
[5] = rates g ai/ha: chlropyrifos 1120, chlorothalonil 2630, paclobutrazol 3.23, mepiquat-chloride 12.3, Isoxadifen 8, Napthalic anhydride 264, + NIS 0.25 % v/v

SMILES: C[N+]1(C)CCCCC1 [mepiquat-chloride]
- Magnesium, Percent Increase Over the Untreated Check (on a % dry matter basis) (kale 'Red Russian'; [1]): −3 % check
- Manganese, Percent Increase Over the Untreated Check (on a % dry matter basis) (kale 'Red Russian'; [1]): −2 % check
- NDF, Percent Increase Over the Untreated Check (on a % dry matter basis) (kale 'Red Russian'; [1]): −2 % check
- Phosphorous, Percent Increase Over the Untreated Check (on a % dry matter basis) (kale 'Red Russian'; [1]): 1 % check
- Potassium, Percent Increase Over the Untreated Check (on a % dry matter basis) (kale 'Red Russian'; [1]): −5 % check
- Sodium, Percent Increase Over the Untreated Check (on a % dry matter basis) (kale 'Red Russian'; [1]): 4 % check
- Zinc, Percent Increase Over the Untreated Check (on a % dry matter basis) (kale 'Red Russian'; [1]): −5 % check
- ADF, Percent Increase Over the Untreated Check (on a % dry matter basis) (kale 'Red Russian'; [2]): −2 % check
- Calcium, Percent Increase Over the Untreated Check (on a % dry matter basis) (kale 'Red Russian'; [2]): −3 % check
- Copper, Percent Increase Over the Untreated Check (on a % dry matter basis) (kale 'Red Russian'; [2]): −6 % check
- Iron, Percent Increase Over the Untreated Check (on a % dry matter basis) (kale 'Red Russian'; [2]): −4 % check
- Magnesium, Percent Increase Over the Untreated Check (on a % dry matter basis) (kale 'Red Russian'; [2]): 0 % check
- Manganese, Percent Increase Over the Untreated Check (on a % dry matter basis) (kale 'Red Russian'; [2]): −7 % check
- NDF, Percent Increase Over the Untreated Check (on a % dry matter basis) (kale 'Red Russian'; [2]): −7 % check
- Phosphorous, Percent Increase Over the Untreated Check (on a % dry matter basis) (kale 'Red Russian'; [2]): 1 % check
- Potassium, Percent Increase Over the Untreated Check (on a % dry matter basis) (kale 'Red Russian'; [2]): −1 % check
- Sodium, Percent Increase Over the Untreated Check (on a % dry matter basis) (kale 'Red Russian'; [2]): 4 % check
- Zinc, Percent Increase Over the Untreated Check (on a % dry matter basis) (kale 'Red Russian'; [2]): −10 % check
- Alanine, Percent Increase over the Untreated Check (on a % dry matter basis) (kale 'Red Russian'; [3]): −4 % check
- Aspartic acid, Percent Increase over the Untreated Check (on a % dry matter basis) (kale 'Red Russian'; [3]): −2 % check
- Cysteine, Percent Increase over the Untreated Check (on a % dry matter basis) (kale 'Red Russian'; [3]): −6 % check
- Glutamic acid, Percent Increase over the Untreated Check (on a % dry matter basis) (kale 'Red Russian'; [3]): −2 % check
- Glycine, Percent Increase over the Untreated Check (on a % dry matter basis) (kale 'Red Russian'; [3]): −7 % check
- Iso-leucine, Percent Increase over the Untreated Check (on a % dry matter basis) (kale 'Red Russian'; [3]): −3 % check
- Leucine, Percent Increase over the Untreated Check (on a % dry matter basis) (kale 'Red Russian'; [3]): −4 % check
- Lysine, Percent Increase over the Untreated Check (on a % dry matter basis) (kale 'Red Russian'; [3]): −1 % check
- Methionine, Percent Increase over the Untreated Check (on a % dry matter basis) (kale 'Red Russian'; [3]): −4 % check
- Proline, Percent Increase over the Untreated Check (on a % dry matter basis) (kale 'Red Russian'; [3]): 2 % check
- Threonine, Percent Increase over the Untreated Check (on a % dry matter basis) (kale 'Red Russian'; [3]): −1 % check
- Total Amino acids, Percent Increase over the Untreated Check (on a % dry matter basis) (kale 'Red Russian'; [3]): −2 % check
- Total Protein, Percent Increase over the Untreated Check (on a % dry matter basis) (kale 'Red Russian'; [3]): 0 % check
- Valine, Percent Increase over the Untreated Check (on a % dry matter basis) (kale 'Red Russian'; [3]): −2 % check
- ADF, Percent Increase Over the Untreated Check (on a % dry matter basis) (basil 'Genovese'; [4]): −9 % check
- Calcium, Percent Increase Over the Untreated Check (on a % dry matter basis) (basil 'Genovese'; [4]): 2 % check
- Copper, Percent Increase Over the Untreated Check (on a % dry matter basis) (basil 'Genovese'; [4]): −8 % check
- Iron, Percent Increase Over the Untreated Check (on a % dry matter basis) (basil 'Genovese'; [4]): 6 % check
- Magnesium, Percent Increase Over the Untreated Check (on a % dry matter basis) (basil 'Genovese'; [4]): 16 % check
- Manganese, Percent Increase Over the Untreated Check (on a % dry matter basis) (basil 'Genovese'; [4]): 61 % check
- NDF, Percent Increase Over the Untreated Check (on a % dry matter basis) (basil 'Genovese'; [4]): −11 % check
- Phosphorous, Percent Increase Over the Untreated Check (on a % dry matter basis) (basil 'Genovese'; [4]): 26 % check
- Potassium, Percent Increase Over the Untreated Check (on a % dry matter basis) (basil 'Genovese'; [4]): −3 % check
- Protein, Percent Increase Over the Untreated Check (on a % dry matter basis) (basil 'Genovese'; [4]): 7 % check
- Sodium, Percent Increase Over the Untreated Check (on a % dry matter basis) (basil 'Genovese'; [4]): 8 % check
- Soluble protein, Percent Increase Over the Untreated Check (on a % dry matter basis) (basil 'Genovese'; [4]): 27 % check
- Zinc, Percent Increase Over the Untreated Check (on a % dry matter basis) (basil 'Genovese'; [4]): 53 % check
- ADF, Percent Increase Over the Untreated Check (on a % dry matter basis) (basil 'Genovese'; [5]): 7 % check
- Calcium, Percent Increase Over the Untreated Check (on a % dry matter basis) (basil 'Genovese'; [5]): 2 % check
- Copper, Percent Increase Over the Untreated Check (on a % dry matter basis) (basil 'Genovese'; [5]): 0 % check
- Iron, Percent Increase Over the Untreated Check (on a % dry matter basis) (basil 'Genovese'; [5]): 14 % check
- Magnesium, Percent Increase Over the Untreated Check (on a % dry matter basis) (basil 'Genovese'; [5]): 0 % check
- Manganese, Percent Increase Over the Untreated Check (on a % dry matter basis) (basil 'Genovese'; [5]): 61 % check
- NDF, Percent Increase Over the Untreated Check (on a % dry matter basis) (basil 'Genovese'; [5]): −8 % check
- Phosphorous, Percent Increase Over the Untreated Check (on a % dry matter basis) (basil 'Genovese'; [5]): 13 % check
- Potassium, Percent Increase Over the Untreated Check (on a % dry matter basis) (basil 'Genovese'; [5]): −4 % check
- Protein, Percent Increase Over the Untreated Check (on a % dry matter basis) (basil 'Genovese'; [5]): 13 % check
- Sodium, Percent Increase Over the Untreated Check (on a % dry matter basis) (basil 'Genovese'; [5]): −8 % check
- Soluble protein, Percent Increase Over the Untreated Check (on a % dry matter basis) (basil 'Genovese'; [5]): 89 % check
- Zinc, Percent Increase Over the Untreated Check (on a % dry matter basis) (basil 'Genovese'; [5]): 34 % check
